# Laboratory results reported in patent US20060057669A1, “Inactive transcription factor tif-ia and uses thereof” (priority 2002, published 2006).
# System: TIF-IA
# Experiment: Two-dimensional tryptic phosphopeptide mapping of TIF-IA labeled in vivo in HEK293T cells
# Type: cell-based, human
# Details: serum-stimulated cells, 40 μM PD98059
# Method: HEK293T cells were transfected with pcDNA3.1-FLAG-TIF-IA, starved for 12 hr and labeled for 4 hr with [^32P]orthophosphate. 30 min before harvesting, 10% dialyzed FCS was added and cells were incubated in the absence (left panel) or presence of 40 μM PD98059 (right panel). Immunopurified TIF-IA was subjected to two-dimensional phosphopeptide mapping.
# (B) Tryptic peptide maps of TIF-IA phosphorylated in vivo. FLAG-tagged wild-type TIF-IA, TIF-IAS633A and TIF-IAS649A were expressed in HEK293T cells and labeled with [^32P]orthophosphate for 4 hr. TIF-IA was purified by immunoprecipitation and digested with trypsin. Phosphopeptides were separated on cellulose thin-layer plates and visualized by autoradiography. The sequence of the C-terminus of human TIF-IA (H.s.) and an alignment with the corresponding sequences from mouse (M.m.), Drosophila melanogaster (D.m.) and Saccharomyces pombe (S.p.) is shown above.
# (A) Two-dimensional tryptic phosphopeptide maps of TIF-IA. HEK293T cells were transfected with FLAG-tagged TIF-IA and labeled for 2 hr with [^32P]orthophosphate in the absence (left) or presence (right) of 20 nM rapamycin. TIF-IA was immunopurified, digested with trypsin, separated on cellulose thin-layer plates and visualized by autoradiography.
# (B) Tryptic phosphopeptide map of TIF-IAS44A phosphorylated in vivo. […]
structure (smiles),measurement,value
COc1cccc(-c2cc(=O)c3ccccc3o2)c1N [PD98059],"labeling of TIF-IA phosphopeptide spots d, f and g",impaired
same,phosphorylation of TIF-IA phosphopeptide spots b and c,reduced
